EP4159213A1, “PHARMACEUTICAL COMPOSITIONS FOR USE IN PREVENTION AND/OR TREATMENT AND/OR CURE OF HEPATITIS B VIRUS” (Katholieke Universiteit Leuven, priority 2021, dated 2023)
Structures can show the parent of a compound that is named as a salt. Where two headings read alike, the source gives them in different places. Residues, ends and D or L forms follow the SMILES beside them.

Molecular target: T1, human NTCP (Homo sapiens, UniProt Q14973)
T1 sequence (Q14973 1-349): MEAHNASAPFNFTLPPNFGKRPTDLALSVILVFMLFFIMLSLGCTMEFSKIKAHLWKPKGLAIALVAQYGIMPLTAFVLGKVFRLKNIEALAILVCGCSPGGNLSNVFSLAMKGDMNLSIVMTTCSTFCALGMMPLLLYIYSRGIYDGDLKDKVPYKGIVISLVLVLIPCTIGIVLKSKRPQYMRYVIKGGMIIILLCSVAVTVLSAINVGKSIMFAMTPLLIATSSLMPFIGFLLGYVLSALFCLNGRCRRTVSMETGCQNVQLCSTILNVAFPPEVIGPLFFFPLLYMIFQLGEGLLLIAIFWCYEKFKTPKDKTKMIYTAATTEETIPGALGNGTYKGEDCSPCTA
Test: Inhibition of tauro-nor-THCA-24-DBD uptake in NTCP-transfected CHO cells
Assay type: cell-based
Set-up: expressed in transfected cells; host or cells: CHO cells, geneticin selection, expression induced with sodium butyrate
Details: for concentration-dependent inhibition of tauro-nor-THCA-24-DBD uptake: multiple inhibitor concentrations
Method: The cells were placed in an incubator at 37 °C and 5% CO2. The culture medium consisted of DMEM with 1 g·L^-1 glucose and 25 mM HEPES, supplemented with 10% FBS, 0.05 mg·mL^-1 L-proline, 100 IU·mL^-1 penicillin, 100 […], 2 mM glutamine, 0.11 mg·mL^-1 sodium pyruvate. To ensure selection of NTCP-transfected cells, 0.5 mg·mL^-1 geneticin was added to the medium of the transfected cells. Cells were seeded in black 96-well plates with transparent bottom at a density of 6000 cells·well^-1 and 4000 cells·well^-1 for wild-type and transfected cells, respectively. The medium was replaced every other day and 5 mM sodium butyrate was added to induce protein expression at least 36 h before the start of the experiments. Experiments were performed on day 4 or 5 after seeding when confluence was reached.
Furthermore, to analyse the uptake experiments in NTCP-transfected CHO cells, cells were rinsed twice with 200 µL-well^-1 uptake buffer (HBSS containing 10 mM HEPES, pH 7.4) at 37 °C and subsequently preincubated with 100 µL uptake buffer for 15 minutes. For inhibition experiments, compounds were added at double concentration during preincubation. Uptake was initiated by adding 100 µL double-concentrated tauro-nor-THCA-24-DBD solution in uptake buffer. Cells were incubated for 15 minutes. The reaction was quenched by aspirating the incubation mixture and washing four times with ice cold uptake buffer. The cells were lysed with 100 µL 0.5% Triton X-100 in PBS and placed on a plate shaker (300 rpm) at room temperature for 30 minutes. Uptake of tauro-nor-THCA-24-DBD was determined using fluorescence spectroscopy (excitation 440 nm, emission 580 nm) using a Tecan Infinite 200 plate reader (Tecan Benelux, Mechelen, Belgium). Protein content of each well was determined with the BCA Protein assay (Thermo Fisher Scientific, Waltham, MA) performed according to the manufacturer's protocol. Uptake kinetics of tauro-nor-THCA-24-DBD were determined by incubating eight different concentrations in the absence of any compound. […] All conditions were tested in triplicate.
Uptake of tauro-nor-THCA-24-DBD in presence of compounds was expressed to uptake of the control for each batch, i.e. when no compound was present.
For determination of the IC50, the uptake in presence of various concentrations of inhibitor was fitted to the sigmoid Emax model: E = Emax −(Emax−E0) × (([I])^n)/(([I])^n + IC50^n) [formula] with E the uptake of tauro-nor-THCA-24-DBD, E0 the uptake at maximal inhibition by the compound, Emax the uptake at minimal inhibition, IC50 the concentration of the inhibitor at half maximal inhibition, n the Hill coefficient and [I] the concentration of the inhibitor. All curves were fitted with nonlinear least squares regression using R version 3.5.1.
Assuming competitive inhibition, the Cheng-Prusoff equation was used to determine the Ki value: Ki = (IC50)/(1 + ([S])/(Km)) [formula] where Ki is the binding affinity of the inhibitor, IC50 the concentration of the inhibitor at half maximal inhibition, [S] the substrate concentration, and Km the Michaelis-Menten constant of the substrate.

[1] = 3 µM tauro-nor-THCA-24-DBD, Cheng-Prusoff from IC50, screening hits, read-out: Ki
[2] = compound at equimolar concentration with 3 µM tauro-nor-THCA-24-DBD, triplicate
[3] = 3 µM tauro-nor-THCA-24-DBD, 15 minutes, Cheng-Prusoff from IC50, known NTCP inhibitors, read-out: Ki ± SE

| Structure (SMILES) | Ki [1] | Uptake of tauro-nor-THCA-24-DBD (% of control) [2] | other results |
| --- | --- | --- | --- |
| O=C(O)c1cc([N+](=O)[O-])ccc1NCCCc1ccccc1 [5-nitro-2-phenylpropylaminobenzoic acid] | 820 nM | 49.55 % of control | – |
| C=CC(C)(O)CCC=C(C)C (stereo not drawn) [(+)- Linalool] | – | 46.35 % of control | – |
| COc1cc2c(cc1OC)[C@@H]1C(=O)c3ccc4c(c3O[C@@H]1CO2)C=CC(C)(C)O4 [(-)-Deguelin] | 1670 nM | 27.97 % of control | – |
| COc1ccc(-c2oc3c(CC=C(C)C)c(O)cc(O)c3c(=O)c2O[C@@H]2O[C@@H](C)[C@H](O)[C@@H](O)[C@H]2O)cc1 [Baohuoside I] | – | – | concentration-dependent inhibition of tauro-nor-THCA-24-DBD uptake (3 µM tauro-nor-THCA-24-DBD): showed concentration-dependent inhibition; Ki (3 µM tauro-nor-THCA-24-DBD, values given with ± spread, read-out: Ki): 12600 ± 4100 nM |
| COc1ccccc1Oc1c(NS(=O)(=O)c2ccc(C(C)(C)C)cc2)nc(-c2ncccn2)nc1OCCO [Bosentan] | – | – | Ki [3]: 6300 ± 1400 nM; concentration-dependent inhibition of tauro-nor-THCA-24-DBD uptake (3 µM tauro-nor-THCA-24-DBD): concentration-dependent manner |
| O=C1OC(c2ccc(O)c(S(=O)(=O)O)c2)(c2ccc(O)c(S(=O)(=O)O)c2)c2c(Br)c(Br)c(Br)c(Br)c21 [Bromosulfophthalein] | – | – | Ki [3]: 10700 ± 3100 nM; concentration-dependent inhibition of tauro-nor-THCA-24-DBD uptake (3 µM tauro-nor-THCA-24-DBD): concentration-dependent manner |
| CCOc1nc2cccc(C(=O)OC(C)OC(=O)OC3CCCCC3)c2n1Cc1ccc(-c2ccccc2-c2nnn[nH]2)cc1 (centres unmarked) [Candesartan cilextil] | 340 nM | 19.76 % of control | – |
| Cn1nnnc1SCC1=C(C(=O)O)N2C(=O)[C@@H](NC(=O)[C@H](O)c3ccccc3)[C@H]2SC1 [Cefamandole sodium] | 2070 nM | 23.97 % of control | – |
| COC(=O)CC[C@@H](C)[C@H]1CC[C@H]2[C@@H]3[C@H](O)C[C@@H]4C[C@H](O)CC[C@]4(C)[C@H]3C[C@H](O)[C@]12C [Cholic acid, methyl ester] | – | – | Ki: 2320 nM; Uptake of tauro-nor-THCA-24-DBD (% of control): 37.90 % of control |
| COc1cc(OC)c2ccc(=O)oc2c1 [Citropten] | – | 46.97 % of control | – |
| CC(C)(O)CC[C@@H](O)[C@](C)(O)[C@H]1CC[C@@]2(O)C3=CC(=O)[C@@H]4C[C@@H](O)[C@@H](O)C[C@]4(C)[C@H]3CC[C@]12C [Crustecdysone] | – | 46.18 % of control | – |
| CC/C(=C(/CC)c1ccc(O)cc1)c1ccc(O)cc1 [Diethylstilbestrol] | 1570 nM | 48.51 % of control | – |
| COc1cc2c(cc1OC)[C@@H]1C(=O)c3ccc4c(c3O[C@@H]1CO2)C[C@H](C(C)C)O4 [Dihydrorotenone] | 1110 nM | 37.31 % of control | – |
| CCC(=O)O[C@H]1[C@H](O[C@@H]2[C@@H](C)[C@H](O[C@H]3C[C@@](C)(OC)[C@@H](O)[C@H](C)O3)[C@@H](C)C(=O)O[C@H](CC)[C@@](C)(O)[C@H](O)[C@@H](C)C(=O)[C@H](C)C[C@@]2(C)O)O[C@H](C)C[C@@H]1N(C)C [Erythromycin estolate] | 520 nM | 8.49 % of control | – |
| O=C(O)c1ccccc1Nc1cccc(C(F)(F)F)c1 [Flufenamic acid] | 7510 nM | 44.12 % of control | – |
| CN[C@@H]1[C@@H](O)[C@@H](O[C@@H]2[C@@H](O)[C@H](O[C@H]3O[C@H]([C@@H](C)O)[C@@H](O)[C@H](O)[C@H]3N)[C@@H](N)C[C@H]2N)OC[C@]1(C)O [Geneticin] | – | 43.81 % of control | – |
| CC(=O)O.Cc1cc2c(C(C)C)c(O)c(O)c(C=O)c2c(O)c1-c1c(C)cc2c(C(C)C)c(O)c(O)c(C=O)c2c1O [Gossypol-acetic acid complex] | 3100 nM | 36.14 % of control | – |
| Cc1cc2c(C(C)C)c(O)c(O)c(C=O)c2c(O)c1-c1c(C)cc2c(C(C)C)c(O)c(O)c(C=O)c2c1O [Gossypol] | 400 nM | 12.48 % of control | – |
| Cc1cc(O)c(C=O)c(O)c1C(=O)O [Haematommic acid] | – | 49.33 % of control | – |
| Oc1c(Cl)cc(Cl)c(Cl)c1Cc1c(O)c(Cl)cc(Cl)c1Cl [Hexachlorophene] | – | 23.92 % of control | Ki: 260 nM |
| COc1cc(-c2coc3cc(OCc4ccccc4)c(OC)c(O)c3c2=O)cc(O)c1OC [Irigenin, 7-benzyl ether] | 13000 nM | 46.71 % of control | – |
| CC(=O)O[C@H]1C[C@H](O[C@H]2[C@@H](O)C[C@H](O[C@H]3[C@@H](O)C[C@H](O[C@H]4CC[C@@]5(C)[C@H](CC[C@@H]6[C@@H]5C[C@@H](O)[C@]5(C)[C@@H](C7=CC(=O)OC7)CC[C@]65O)C4)O[C@@H]3C)O[C@@H]2C)O[C@H](C)[C@H]1O[C@@H]1O[C@H](CO)[C@@H](O)[C@H](O)[C@H]1O [Lanatoside c] | – | – | Ki: 125000 nM; Uptake of tauro-nor-THCA-24-DBD (% of control): 45.13 % of control |
| CCCCCc1c2c(cc(O)c1C(=O)O)OC(=O)c1c(cc(OC)cc1C(=O)CCCC)O2 [Lobaric acid] | 360 nM | 9.70 % of control | – |
| COC(=O)CC[C@@H](C)[C@H]1CC[C@H]2[C@@H]3CC[C@@H]4C[C@H](O)CC[C@]4(C)[C@H]3C[C@H](O)[C@]12C [Methyl deoxycholate] | 4840 nM | 36.71 % of control | – |
| COC(=O)C1=C(C)NC(C)=C(C(=O)OCCN(C)Cc2ccccc2)C1c1cccc([N+](=O)[O-])c1 (centres unmarked) [Nicardipine hydrochloride] | 3530 nM | 42.69 % of control | – |
| O=C(Nc1ccc([N+](=O)[O-])cc1Cl)c1cc(Cl)ccc1O [Niclosamide] | 80 nM | 35.45 % of control | – |
| Oc1c(Cl)c(Cl)c(Cl)c(Cl)c1Cl [Pentachlorophenol] | 2270 nM | 46.29 % of control | – |
| N[C@@H](Cc1ccccc1)C(=O)N[C@@H](Cc1ccc(O)cc1)C(=O)O [Phenylalanyltyrosine] (H-Phe-Tyr-OH) | – | 47.22 % of control | – |
| COC(=O)[C@H]1[C@H]2C[C@H]3c4[nH]c5ccccc5c4CCN3C[C@H]2CC[C@@H]1O [Rauwolscine hydrochloride] | 39300 nM | – | – |
| COc1ccc(-c2c(OC)c3c(OC)c4c(cc3oc2=O)OC(C)(C)C=C4)cc1 [Robustic acid methyl ether] | 10600 nM | 21.11 % of control | – |
